Legend:
[1] = molecular target: IKBKB (IKK beta) (Homo sapiens (Human), UniProt O14920); experiment: SelectScreen Kinase Profiling: IKBKB; type: biochemical; settings: 300-350 nM
Text: (§1) Table 2 below highlights the selectivity of a representative compound of the invention against a panel of 50 kinases (assessed using the Invitrogen SelectScreen® Kinase Profiling Service).

[2] = molecular target: PHKG2 (Homo sapiens (Human), UniProt P15735); experiment: SelectScreen Kinase Profiling: PHKG2; type: biochemical; settings: 300-350 nM
Text: as §1

[3] = molecular target: MAP2K1 (MEK1) (Homo sapiens (Human), UniProt Q02750); experiment: SelectScreen Kinase Profiling: MAP2K1; type: biochemical; settings: 300-350 nM
Text: as §1

[4] = molecular target: ERBB2 (HER2) (Homo sapiens (Human), UniProt P04626); experiment: SelectScreen Kinase Profiling: ERBB2; type: biochemical; settings: 300-350 nM
Chain of ERBB2 (HER2) (P04626 23-1255): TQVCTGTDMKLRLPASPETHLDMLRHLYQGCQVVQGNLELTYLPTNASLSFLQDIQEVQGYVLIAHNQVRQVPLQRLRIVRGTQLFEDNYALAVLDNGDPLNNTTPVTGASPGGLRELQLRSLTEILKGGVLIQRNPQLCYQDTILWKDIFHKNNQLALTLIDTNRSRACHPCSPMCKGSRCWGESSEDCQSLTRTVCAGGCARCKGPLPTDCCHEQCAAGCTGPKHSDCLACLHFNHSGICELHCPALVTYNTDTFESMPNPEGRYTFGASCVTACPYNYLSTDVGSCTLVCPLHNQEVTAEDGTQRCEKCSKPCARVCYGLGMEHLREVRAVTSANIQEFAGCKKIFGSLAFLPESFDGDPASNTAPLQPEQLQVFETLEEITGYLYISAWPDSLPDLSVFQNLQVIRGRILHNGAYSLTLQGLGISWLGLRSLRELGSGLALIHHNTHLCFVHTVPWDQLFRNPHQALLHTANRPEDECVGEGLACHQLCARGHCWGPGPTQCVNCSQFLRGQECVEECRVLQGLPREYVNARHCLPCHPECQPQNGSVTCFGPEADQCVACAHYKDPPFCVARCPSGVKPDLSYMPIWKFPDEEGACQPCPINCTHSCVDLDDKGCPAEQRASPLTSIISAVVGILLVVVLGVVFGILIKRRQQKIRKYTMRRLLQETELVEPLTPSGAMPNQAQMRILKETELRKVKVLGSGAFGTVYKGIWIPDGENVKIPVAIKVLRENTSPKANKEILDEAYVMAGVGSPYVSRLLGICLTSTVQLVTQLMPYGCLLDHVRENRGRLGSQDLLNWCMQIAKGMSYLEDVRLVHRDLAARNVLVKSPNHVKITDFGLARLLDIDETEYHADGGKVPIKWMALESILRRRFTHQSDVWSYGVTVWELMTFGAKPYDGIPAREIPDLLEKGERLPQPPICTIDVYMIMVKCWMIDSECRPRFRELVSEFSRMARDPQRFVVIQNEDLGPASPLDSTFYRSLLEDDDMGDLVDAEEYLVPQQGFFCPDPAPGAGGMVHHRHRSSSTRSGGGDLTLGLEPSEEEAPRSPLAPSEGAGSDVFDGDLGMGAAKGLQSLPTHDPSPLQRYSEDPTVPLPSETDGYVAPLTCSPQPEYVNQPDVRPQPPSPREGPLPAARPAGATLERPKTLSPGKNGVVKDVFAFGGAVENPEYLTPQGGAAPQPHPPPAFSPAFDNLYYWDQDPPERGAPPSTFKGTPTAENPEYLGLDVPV
Text: as §1

[5] = molecular target: TEK (Tie2) (Homo sapiens (Human), UniProt Q02763); experiment: SelectScreen Kinase Profiling: TEK; type: biochemical; settings: 300-350 nM
Chain of TEK (Tie2) (Q02763 23-1124): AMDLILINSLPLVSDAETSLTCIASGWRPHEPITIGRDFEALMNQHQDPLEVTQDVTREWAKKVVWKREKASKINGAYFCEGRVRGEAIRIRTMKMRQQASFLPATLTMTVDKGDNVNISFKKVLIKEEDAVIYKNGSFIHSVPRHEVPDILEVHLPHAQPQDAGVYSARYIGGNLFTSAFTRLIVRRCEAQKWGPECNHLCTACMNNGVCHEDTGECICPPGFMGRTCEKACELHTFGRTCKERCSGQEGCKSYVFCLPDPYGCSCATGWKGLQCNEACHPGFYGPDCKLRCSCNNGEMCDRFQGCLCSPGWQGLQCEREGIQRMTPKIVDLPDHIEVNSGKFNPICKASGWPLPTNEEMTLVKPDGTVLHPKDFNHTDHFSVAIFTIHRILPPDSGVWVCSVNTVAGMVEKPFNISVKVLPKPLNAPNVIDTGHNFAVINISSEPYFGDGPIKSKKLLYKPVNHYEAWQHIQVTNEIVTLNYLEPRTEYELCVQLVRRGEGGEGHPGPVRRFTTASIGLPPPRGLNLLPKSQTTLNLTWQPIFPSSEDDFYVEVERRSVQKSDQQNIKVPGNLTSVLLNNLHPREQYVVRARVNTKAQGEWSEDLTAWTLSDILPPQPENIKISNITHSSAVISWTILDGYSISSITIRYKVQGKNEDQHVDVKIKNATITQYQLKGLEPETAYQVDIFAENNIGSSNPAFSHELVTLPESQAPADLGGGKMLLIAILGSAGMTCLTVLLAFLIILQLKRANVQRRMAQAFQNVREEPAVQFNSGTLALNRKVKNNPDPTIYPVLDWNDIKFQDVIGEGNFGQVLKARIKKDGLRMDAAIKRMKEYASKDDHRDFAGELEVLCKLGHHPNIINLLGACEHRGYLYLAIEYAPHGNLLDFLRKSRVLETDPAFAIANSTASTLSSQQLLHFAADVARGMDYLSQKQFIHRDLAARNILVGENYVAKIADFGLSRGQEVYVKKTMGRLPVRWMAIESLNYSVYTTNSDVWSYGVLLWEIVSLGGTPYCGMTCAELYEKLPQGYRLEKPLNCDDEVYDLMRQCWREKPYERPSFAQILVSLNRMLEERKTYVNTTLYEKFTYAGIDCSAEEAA
Text: as §1

[6] = molecular target: KDR (VEGFR2) (Homo sapiens (Human), UniProt P35968); experiment: SelectScreen Kinase Profiling: KDR; type: biochemical; settings: 300-350 nM
Text: as §1

[7] = molecular target: ROCK1 (Homo sapiens (Human), UniProt Q13464); experiment: SelectScreen Kinase Profiling: ROCK1; type: biochemical; settings: 300-350 nM
Text: as §1

[8] = molecular target: AKT1 (PKB alpha) (Homo sapiens (Human), UniProt P31749); experiment: SelectScreen Kinase Profiling: AKT1; type: biochemical; settings: 300-350 nM
Chain of AKT1 (PKB alpha) (P31749 whole entry): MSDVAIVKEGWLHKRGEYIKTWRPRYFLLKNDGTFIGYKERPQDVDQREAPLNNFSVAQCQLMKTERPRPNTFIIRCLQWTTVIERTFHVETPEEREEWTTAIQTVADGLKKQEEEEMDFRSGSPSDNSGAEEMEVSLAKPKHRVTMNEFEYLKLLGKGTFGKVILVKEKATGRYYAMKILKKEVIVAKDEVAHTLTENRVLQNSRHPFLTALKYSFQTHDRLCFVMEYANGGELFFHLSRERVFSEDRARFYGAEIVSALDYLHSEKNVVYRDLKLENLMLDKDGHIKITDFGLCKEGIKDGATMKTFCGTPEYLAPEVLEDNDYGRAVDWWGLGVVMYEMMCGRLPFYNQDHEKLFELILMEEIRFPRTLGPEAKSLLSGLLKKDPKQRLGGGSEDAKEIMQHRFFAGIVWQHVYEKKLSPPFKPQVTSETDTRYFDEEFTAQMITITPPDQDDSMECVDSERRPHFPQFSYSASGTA
Text: as §1

[9] = molecular target: ABL1 (Homo sapiens (Human), UniProt P00519); experiment: SelectScreen Kinase Profiling: ABL1; type: biochemical; settings: 300-350 nM
Text: as §1

[10] = molecular target: PAK4 (Homo sapiens (Human), UniProt O96013); experiment: SelectScreen Kinase Profiling: PAK4; type: biochemical; settings: 300-350 nM
Text: as §1

[11] = molecular target: CHEK1 (CHK1) (Homo sapiens (Human), UniProt O14757); experiment: SelectScreen Kinase Profiling: CHEK1; type: biochemical; settings: 300-350 nM
Chain of CHEK1 (CHK1) (O14757 whole entry): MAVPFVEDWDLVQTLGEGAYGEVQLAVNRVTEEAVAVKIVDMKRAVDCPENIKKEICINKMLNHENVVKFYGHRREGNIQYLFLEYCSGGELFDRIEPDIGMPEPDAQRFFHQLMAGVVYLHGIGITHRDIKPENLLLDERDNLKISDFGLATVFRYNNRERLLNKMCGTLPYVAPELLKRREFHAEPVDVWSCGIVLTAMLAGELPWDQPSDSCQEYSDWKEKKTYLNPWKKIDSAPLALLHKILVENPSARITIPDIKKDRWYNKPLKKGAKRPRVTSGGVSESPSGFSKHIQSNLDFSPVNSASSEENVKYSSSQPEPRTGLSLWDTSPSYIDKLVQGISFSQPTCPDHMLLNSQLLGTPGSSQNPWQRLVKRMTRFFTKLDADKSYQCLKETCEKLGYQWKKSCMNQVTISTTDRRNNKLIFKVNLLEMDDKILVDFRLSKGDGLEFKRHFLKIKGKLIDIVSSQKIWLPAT
Text: as §1

[12] = molecular target: AURKA (Aurora A) (Homo sapiens (Human), UniProt O14965); experiment: SelectScreen Kinase Profiling: AURKA; type: biochemical; settings: 300-350 nM
Chain of AURKA (Aurora A) (O14965 whole entry): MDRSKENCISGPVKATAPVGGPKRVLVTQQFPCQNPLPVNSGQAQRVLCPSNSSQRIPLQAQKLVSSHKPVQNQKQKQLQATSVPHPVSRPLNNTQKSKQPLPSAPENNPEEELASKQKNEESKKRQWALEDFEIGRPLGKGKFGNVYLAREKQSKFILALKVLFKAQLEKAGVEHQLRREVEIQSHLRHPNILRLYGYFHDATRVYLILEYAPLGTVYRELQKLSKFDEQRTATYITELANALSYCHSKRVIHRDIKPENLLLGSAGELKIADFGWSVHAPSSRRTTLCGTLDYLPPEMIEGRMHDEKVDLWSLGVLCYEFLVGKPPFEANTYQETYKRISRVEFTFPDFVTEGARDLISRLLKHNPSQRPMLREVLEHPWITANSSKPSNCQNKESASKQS
Text: as §1

[13] = molecular target: CSNK2A1 (CK2 alpha 1) (Homo sapiens (Human), UniProt P68400); experiment: SelectScreen Kinase Profiling: CSNK2A1; type: biochemical; settings: 300-350 nM
Text: as §1

[14] = molecular target: PDGFRB (PDGFR beta) (Homo sapiens (Human), UniProt P09619); experiment: SelectScreen Kinase Profiling: PDGFRB; type: biochemical; settings: 300-350 nM
[15] = molecular target: PLK1 (Homo sapiens (Human), UniProt P53350); experiment: SelectScreen Kinase Profiling: PLK1; type: biochemical; settings: 300-350 nM
Text: as §1

[16] = molecular target: ACVR1B (ALK4) (Homo sapiens (Human), UniProt P36896); experiment: SelectScreen Kinase Profiling: ACVR1B; type: biochemical; settings: 300-350 nM
Text: as §1

[17] = CLint estimates using human liver microsomes; type: in vitro ADME; settings: pH 7.4, read-out: HLM activity (HLM CLint)
[18] = molecular target: MET (cMet) (Homo sapiens (Human), UniProt P08581); experiment: SelectScreen Kinase Profiling: MET; type: biochemical; settings: 300-350 nM
Text: as §1

[19] = molecular target: RPS6KB1 (p70S6K) (Homo sapiens (Human), UniProt P23443); experiment: SelectScreen Kinase Profiling: RPS6KB1; type: biochemical; settings: 300-350 nM
Chain of RPS6KB1 (p70S6K) (P23443 whole entry): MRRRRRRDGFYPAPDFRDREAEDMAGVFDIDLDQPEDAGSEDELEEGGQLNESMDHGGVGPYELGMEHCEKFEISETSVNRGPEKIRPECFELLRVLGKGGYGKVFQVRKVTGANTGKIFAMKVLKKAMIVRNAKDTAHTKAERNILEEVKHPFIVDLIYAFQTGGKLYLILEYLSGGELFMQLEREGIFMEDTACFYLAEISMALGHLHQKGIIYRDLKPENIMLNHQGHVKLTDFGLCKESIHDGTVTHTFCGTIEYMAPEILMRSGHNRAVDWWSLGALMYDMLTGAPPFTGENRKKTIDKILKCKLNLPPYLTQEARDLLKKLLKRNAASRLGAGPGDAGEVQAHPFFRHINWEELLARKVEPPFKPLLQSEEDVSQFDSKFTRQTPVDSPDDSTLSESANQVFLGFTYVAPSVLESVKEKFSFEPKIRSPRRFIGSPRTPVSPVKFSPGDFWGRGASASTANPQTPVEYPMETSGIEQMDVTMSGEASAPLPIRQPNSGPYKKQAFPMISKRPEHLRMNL
Text: as §1

[20] = molecular target: MAPK8 (JNK1) (Homo sapiens (Human), UniProt P45983); experiment: SelectScreen Kinase Profiling: MAPK8; type: biochemical; settings: 300-350 nM
Text: as §1

[21] = molecular target: PRKACA (PKA) (Homo sapiens (Human), UniProt P17612); experiment: SelectScreen Kinase Profiling: PRKACA; type: biochemical; settings: 300-350 nM
Text: as §1

[22] = molecular target: CDK1/cyclin B (Homo sapiens (Human), UniProt P06493); experiment: SelectScreen Kinase Profiling: CDK1/cyclin B; type: biochemical; settings: 300-350 nM
Chain of CDK1/cyclin B (P06493 whole entry): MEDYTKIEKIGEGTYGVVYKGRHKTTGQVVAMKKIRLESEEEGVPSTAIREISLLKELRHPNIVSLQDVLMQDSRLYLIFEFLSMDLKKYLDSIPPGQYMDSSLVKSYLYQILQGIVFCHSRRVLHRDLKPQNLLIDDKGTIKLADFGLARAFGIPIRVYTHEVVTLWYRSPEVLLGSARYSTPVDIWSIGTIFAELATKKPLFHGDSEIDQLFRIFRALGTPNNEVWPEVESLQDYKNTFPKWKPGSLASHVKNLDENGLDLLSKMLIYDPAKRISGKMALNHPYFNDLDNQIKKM
Chain of CDK1/cyclin B (P14635 whole entry partner): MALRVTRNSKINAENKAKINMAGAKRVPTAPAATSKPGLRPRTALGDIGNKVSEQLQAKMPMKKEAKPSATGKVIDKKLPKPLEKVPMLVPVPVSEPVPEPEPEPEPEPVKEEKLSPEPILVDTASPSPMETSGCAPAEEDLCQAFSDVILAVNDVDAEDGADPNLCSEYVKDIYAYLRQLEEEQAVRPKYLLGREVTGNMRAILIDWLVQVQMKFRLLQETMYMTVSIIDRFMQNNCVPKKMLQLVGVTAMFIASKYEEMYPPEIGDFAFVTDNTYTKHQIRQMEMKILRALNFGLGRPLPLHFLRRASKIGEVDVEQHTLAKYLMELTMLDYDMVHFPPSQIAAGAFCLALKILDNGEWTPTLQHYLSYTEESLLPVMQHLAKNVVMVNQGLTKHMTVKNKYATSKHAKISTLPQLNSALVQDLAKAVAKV
Text: as §1

[23] = molecular target: NTRK1 (TRKA) (Homo sapiens (Human), UniProt P04629); experiment: SelectScreen Kinase Profiling: NTRK1; type: biochemical; settings: 300-350 nM
Text: as §1

[24] = molecular target: FGFR1 (Homo sapiens (Human), UniProt P11362); experiment: SelectScreen Kinase Profiling: FGFR1; type: biochemical; settings: 300-350 nM
Text: as §1

[25] = molecular target: IRAK4 (Homo sapiens (Human), UniProt Q9NWZ3); experiment: SelectScreen Kinase Profiling: IRAK4; type: biochemical; settings: 300-350 nM
Text: as §1

[26] = molecular target: Src (Homo sapiens (Human), UniProt P12931); experiment: SelectScreen Kinase Profiling: SRC; type: biochemical; settings: 300-350 nM
[27] = molecular target: FRAP1 (mTOR) (Homo sapiens (Human), UniProt P42345); experiment: SelectScreen Kinase Profiling: FRAP1; type: biochemical; settings: 300-350 nM
Text: as §1

O=c1c2cnc(Nc3ccc(N4CCNCC4)cc3)nc2ccn1-c1c(Cl)cccc1Cl [Example 1, 6-(2,6-Dichlorophenyl)-2-((4-(piperazin-1-yl)phenyl)amino)pyrido[4,3-d]pyrimidin-5(6H)-one]
≤ 20 µL/min/mg: microsomal CLint at 1 μM [17]
− (Inhibition <75% @ 300-350 nM): Inhibition IKBKB (IKK beta) [1] | Inhibition PHKG2 [2] | Inhibition MAP2K1 (MEK1) [3] | Inhibition ERBB2 (HER2) [4] | Inhibition TEK (Tie2) [5] | Inhibition KDR (VEGFR2) [6] | Inhibition ROCK1 [7] | Inhibition AKT1 (PKB alpha) [8] | Inhibition PAK4 [10] | Inhibition CHEK1 (CHK1) [11] | Inhibition AURKA (Aurora A) [12] | Inhibition CSNK2A1 (CK2 alpha 1) [13] | Inhibition PDGFRB (PDGFR beta) [14] | Inhibition PLK1 [15] | Inhibition ACVR1B (ALK4) [16] | Inhibition MET (cMet) [18] | Inhibition RPS6KB1 (p70S6K) [19] | Inhibition MAPK8 (JNK1) [20] | Inhibition PRKACA (PKA) [21] | Inhibition CDK1/cyclin B [22] | Inhibition NTRK1 (TRKA) [23] | Inhibition FGFR1 [24] | Inhibition IRAK4 [25] | Inhibition SRC [26] | Inhibition FRAP1 (mTOR) [27]
+ (Inhibition >75% at 300-350 nM): Inhibition ABL1 [9]

Reference: patent US9714244B2, “Substituted pyrido[4,3-d]pyrimidines as Wee-1 inhibitors” (ALMAC DISCOVERY LIMITED, priority 2013, dated 2017)
